Laboratory results reported in PubChem BioAssay (NCI).
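Protocol summary: plate cells (96-well), add compound at 5 concentrations, incubate 48 h, interpolate endpoints linearly. Definition used: TGI = concentration required for complete inhibition of growth.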

What was measured:
Assay in all cases: inhibition of tumour cell growth, NCI panel, 48 h
SK-MEL-28 melanoma = system: SK-MEL-28 melanoma
CCRF-CEM leukemia = system: CCRF-CEM leukemia
SNB-19 CNS = system: SNB-19 CNS
NCI-H23 lung = system: NCI-H23 lung
K-562 leukemia = system: K-562 leukemia
SK-MEL-5 melanoma = system: SK-MEL-5 melanoma
NCI-H522 lung = system: NCI-H522 lung
RPMI-8226 leukemia = system: RPMI-8226 leukemia
HT29 colon = system: HT29 colon
SF-268 CNS = system: SF-268 CNS
KM20L2 colon = system: KM20L2 colon
HCT-116 colon = system: HCT-116 colon
DMS 273 small cell lung = system: DMS 273 small cell lung
SNB-75 CNS = system: SNB-75 CNS
SF-539 CNS = system: SF-539 CNS
NCI-H226 lung = system: NCI-H226 lung
CAKI-1 renal = system: CAKI-1 renal
SNB-78 CNS = system: SNB-78 CNS
EKVX NSCLC = system: EKVX NSCLC
TK-10 renal = system: TK-10 renal
OVCAR-8 ovarian = system: OVCAR-8 ovarian
UACC-62 melanoma = system: UACC-62 melanoma
OVCAR-5 ovarian = system: OVCAR-5 ovarian
MALME-3M melanoma = system: MALME-3M melanoma
OVCAR-3 ovarian = system: OVCAR-3 ovarian
DMS 114 small cell lung = system: DMS 114 small cell lung
SW-620 colon = system: SW-620 colon
SN12C renal = system: SN12C renal
HOP-92 NSCLC = system: HOP-92 NSCLC
A549 NSCLC = system: A549 NSCLC
ACHN renal = system: ACHN renal
MOLT-4 leukemia = system: MOLT-4 leukemia
KM12 colon = system: KM12 colon
SK-OV-3 ovarian = system: SK-OV-3 ovarian
A498 renal = system: A498 renal
SR leukemia = system: SR leukemia
DLD-1 colon = system: DLD-1 colon
786-0 renal = system: 786-0 renal
M19-MEL melanoma = system: M19-MEL melanoma
HCT-15 colon = system: HCT-15 colon
NCI-H460 lung = system: NCI-H460 lung
HOP-62 NSCLC = system: HOP-62 NSCLC
RXF-631 renal = system: RXF-631 renal
SK-MEL-2 melanoma = system: SK-MEL-2 melanoma
M14 melanoma = system: M14 melanoma
IGROV1 ovarian = system: IGROV1 ovarian
COLO 205 colon = system: COLO 205 colon
LXFL 529 NSCLC = system: LXFL 529 NSCLC
U251 CNS = system: U251 CNS
XF 498 CNS = system: XF 498 CNS
HOP-18 NSCLC = system: HOP-18 NSCLC
HL-60(TB) leukemia = system: HL-60(TB) leukemia
SF-295 CNS = system: SF-295 CNS
HCC-2998 colon = system: HCC-2998 colon
UACC-257 melanoma = system: UACC-257 melanoma
LOX IMVI melanoma = system: LOX IMVI melanoma
UO-31 renal = system: UO-31 renal
OVCAR-4 ovarian = system: OVCAR-4 ovarian
RXF 393 renal = system: RXF 393 renal

CC(=O)N/C(=C\c1ccc(/C=C(\NC(C)=O)c2nc3ccc(Cl)cc3[nH]2)cc1)c1nc2ccccc2[nH]1
TGI (SK-MEL-28 melanoma): > 100 µM
TGI (CCRF-CEM leukemia): > 100 µM
TGI (SNB-19 CNS): > 100 µM
TGI (NCI-H23 lung): > 100 µM
TGI (K-562 leukemia): > 100 µM
TGI (SK-MEL-5 melanoma): > 100 µM
TGI (NCI-H522 lung): > 100 µM
TGI (RPMI-8226 leukemia): > 100 µM
TGI (HT29 colon): > 100 µM
TGI (SF-268 CNS): > 100 µM
TGI (KM20L2 colon): > 100 µM
TGI (HCT-116 colon): > 100 µM
TGI (DMS 273 small cell lung): > 100 µM
TGI (SNB-75 CNS): > 100 µM
TGI (SF-539 CNS): > 100 µM
TGI (NCI-H226 lung): > 100 µM
TGI (CAKI-1 renal): > 100 µM
TGI (SNB-78 CNS): > 100 µM
TGI (EKVX NSCLC): > 100 µM
TGI (TK-10 renal): > 100 µM
TGI (OVCAR-8 ovarian): > 100 µM
TGI (UACC-62 melanoma): > 100 µM
TGI (OVCAR-5 ovarian): > 100 µM
TGI (MALME-3M melanoma): > 100 µM
TGI (OVCAR-3 ovarian): > 100 µM
TGI (DMS 114 small cell lung): > 100 µM
TGI (SW-620 colon): > 100 µM
TGI (SN12C renal): > 100 µM
TGI (HOP-92 NSCLC): > 100 µM
TGI (A549 NSCLC): > 100 µM
TGI (ACHN renal): > 100 µM
TGI (MOLT-4 leukemia): > 100 µM
TGI (KM12 colon): > 100 µM
TGI (SK-OV-3 ovarian): > 100 µM
TGI (A498 renal): > 100 µM
TGI (SR leukemia): > 100 µM
TGI (DLD-1 colon): > 100 µM
TGI (786-0 renal): > 100 µM
TGI (M19-MEL melanoma): > 100 µM
TGI (HCT-15 colon): > 100 µM
TGI (NCI-H460 lung): > 100 µM
TGI (HOP-62 NSCLC): > 100 µM
TGI (RXF-631 renal): > 100 µM
TGI (SK-MEL-2 melanoma): > 100 µM
TGI (M14 melanoma): > 100 µM
TGI (IGROV1 ovarian): > 100 µM
TGI (COLO 205 colon): > 100 µM
TGI (LXFL 529 NSCLC): > 100 µM
TGI (U251 CNS): > 100 µM
TGI (XF 498 CNS): > 100 µM

CCN(CC)CCCCC1CCN(CC(=O)N2CC(C)C(=O)Nc3ccccc32)CC1 (centres undefined)
TGI (HOP-18 NSCLC): > 100 µM
TGI (SK-MEL-28 melanoma): > 100 µM
TGI (CCRF-CEM leukemia): > 100 µM
TGI (SNB-19 CNS): > 100 µM
TGI (NCI-H23 lung): > 100 µM
TGI (K-562 leukemia): > 100 µM
TGI (SK-MEL-5 melanoma): > 100 µM
TGI (HL-60(TB) leukemia): > 100 µM
TGI (RPMI-8226 leukemia): > 100 µM
TGI (HT29 colon): > 100 µM
TGI (SF-268 CNS): > 100 µM
TGI (KM20L2 colon): > 100 µM
TGI (HCT-116 colon): > 100 µM
TGI (DMS 273 small cell lung): > 100 µM
TGI (SF-295 CNS): > 100 µM
TGI (NCI-H226 lung): > 100 µM
TGI (CAKI-1 renal): > 100 µM
TGI (HCC-2998 colon): > 100 µM
TGI (UACC-257 melanoma): > 100 µM
TGI (UACC-62 melanoma): > 100 µM
TGI (OVCAR-5 ovarian): > 100 µM
TGI (MALME-3M melanoma): > 100 µM
TGI (LOX IMVI melanoma): > 100 µM
TGI (OVCAR-3 ovarian): > 100 µM
TGI (DMS 114 small cell lung): > 100 µM
TGI (SW-620 colon): > 100 µM
TGI (SN12C renal): > 100 µM
TGI (UO-31 renal): > 100 µM
TGI (HOP-92 NSCLC): > 100 µM
TGI (A549 NSCLC): > 100 µM
TGI (ACHN renal): > 100 µM
TGI (MOLT-4 leukemia): > 100 µM
TGI (SK-OV-3 ovarian): > 100 µM
TGI (A498 renal): > 100 µM
TGI (SR leukemia): > 100 µM
TGI (DLD-1 colon): > 100 µM
TGI (786-0 renal): > 100 µM
TGI (M19-MEL melanoma): > 100 µM
TGI (HCT-15 colon): > 100 µM
TGI (OVCAR-4 ovarian): > 100 µM
TGI (NCI-H460 lung): > 100 µM
TGI (HOP-62 NSCLC): > 100 µM
TGI (M14 melanoma): > 100 µM
TGI (IGROV1 ovarian): > 100 µM
TGI (COLO 205 colon): > 100 µM
TGI (LXFL 529 NSCLC): > 100 µM
TGI (U251 CNS): > 100 µM

N#CC(C#N)=C(N)/C(C#N)=C\c1ccnc2ccccc12
TGI (HOP-18 NSCLC): > 100 µM
TGI (SK-MEL-28 melanoma): 40.2 µM
TGI (CCRF-CEM leukemia): 10.3 µM
TGI (SNB-19 CNS): > 100 µM
TGI (NCI-H23 lung): 40.5 µM
TGI (K-562 leukemia): 26.1 µM
TGI (SK-MEL-5 melanoma): 34 µM
TGI (NCI-H522 lung): 89.1 µM
TGI (HL-60(TB) leukemia): 4.69 µM
TGI (HT29 colon): 57.7 µM
TGI (SF-268 CNS): 66.3 µM
TGI (HCT-116 colon): 12.4 µM
TGI (DMS 273 small cell lung): 40.5 µM
TGI (SNB-75 CNS): 70.7 µM
TGI (SF-539 CNS): 31.1 µM
TGI (SF-295 CNS): 80.4 µM
TGI (CAKI-1 renal): 92.1 µM
TGI (SNB-78 CNS): > 100 µM
TGI (HCC-2998 colon): > 100 µM
TGI (UACC-257 melanoma): 58.6 µM
TGI (TK-10 renal): > 100 µM
TGI (OVCAR-8 ovarian): 55.7 µM
TGI (UACC-62 melanoma): 38.9 µM
TGI (OVCAR-5 ovarian): > 100 µM
TGI (MALME-3M melanoma): 87 µM
TGI (RXF 393 renal): 35.3 µM
TGI (OVCAR-3 ovarian): > 100 µM
TGI (DMS 114 small cell lung): 38.8 µM
TGI (SW-620 colon): 17.2 µM
TGI (SN12C renal): 60 µM
TGI (UO-31 renal): 40.9 µM
TGI (HOP-92 NSCLC): 88 µM
TGI (A549 NSCLC): > 100 µM
TGI (ACHN renal): > 100 µM
TGI (MOLT-4 leukemia): 47.9 µM
TGI (KM12 colon): > 100 µM
TGI (SR leukemia): 58 µM
TGI (DLD-1 colon): 27.5 µM
TGI (786-0 renal): 37.2 µM
TGI (M19-MEL melanoma): 40.8 µM
TGI (OVCAR-4 ovarian): > 100 µM
TGI (NCI-H460 lung): > 100 µM
TGI (HOP-62 NSCLC): 56.5 µM
TGI (M14 melanoma): > 100 µM
TGI (IGROV1 ovarian): 49.5 µM
TGI (COLO 205 colon): > 100 µM
TGI (LXFL 529 NSCLC): 54.3 µM
TGI (U251 CNS): 43.1 µM
TGI (XF 498 CNS): 69.7 µM

NC(=O)COc1ccccc1
TGI (SK-MEL-28 melanoma): > 100 µM
TGI (CCRF-CEM leukemia): > 100 µM
TGI (SNB-19 CNS): > 100 µM
TGI (NCI-H23 lung): > 100 µM
TGI (K-562 leukemia): > 100 µM
TGI (SK-MEL-5 melanoma): > 100 µM
TGI (NCI-H522 lung): > 100 µM
TGI (HL-60(TB) leukemia): > 100 µM
TGI (RPMI-8226 leukemia): > 100 µM
TGI (HT29 colon): > 100 µM
TGI (SF-268 CNS): > 100 µM
TGI (KM20L2 colon): > 100 µM
TGI (HCT-116 colon): > 100 µM
TGI (DMS 273 small cell lung): > 100 µM
TGI (SNB-75 CNS): > 100 µM
TGI (SF-539 CNS): > 100 µM
TGI (SF-295 CNS): > 100 µM
TGI (NCI-H226 lung): > 100 µM
TGI (CAKI-1 renal): > 100 µM
TGI (SNB-78 CNS): > 100 µM
TGI (HCC-2998 colon): > 100 µM
TGI (EKVX NSCLC): > 100 µM
TGI (UACC-257 melanoma): > 100 µM
TGI (TK-10 renal): > 100 µM
TGI (OVCAR-8 ovarian): > 100 µM
TGI (UACC-62 melanoma): > 100 µM
TGI (OVCAR-5 ovarian): > 100 µM
TGI (MALME-3M melanoma): > 100 µM
TGI (LOX IMVI melanoma): > 100 µM
TGI (RXF 393 renal): > 100 µM
TGI (OVCAR-3 ovarian): > 100 µM
TGI (DMS 114 small cell lung): > 100 µM
TGI (SW-620 colon): > 100 µM
TGI (SN12C renal): > 100 µM
TGI (UO-31 renal): > 100 µM
TGI (HOP-92 NSCLC): > 100 µM
TGI (A549 NSCLC): > 100 µM
TGI (ACHN renal): > 100 µM
TGI (MOLT-4 leukemia): > 100 µM
TGI (KM12 colon): > 100 µM
TGI (SK-OV-3 ovarian): > 100 µM
TGI (A498 renal): > 100 µM
TGI (SR leukemia): > 100 µM
TGI (DLD-1 colon): > 100 µM
TGI (786-0 renal): > 100 µM
TGI (M19-MEL melanoma): > 100 µM
TGI (HCT-15 colon): > 100 µM
TGI (OVCAR-4 ovarian): > 100 µM
TGI (NCI-H460 lung): > 100 µM
TGI (HOP-62 NSCLC): > 100 µM
TGI (RXF-631 renal): > 100 µM
TGI (SK-MEL-2 melanoma): > 100 µM
TGI (M14 melanoma): > 100 µM
TGI (IGROV1 ovarian): > 100 µM
TGI (COLO 205 colon): > 100 µM
TGI (LXFL 529 NSCLC): > 100 µM
TGI (U251 CNS): > 100 µM
TGI (XF 498 CNS): > 100 µM
